Measurements as given in PubChem BioAssay AID1963862 (Molecular Pharmacology Branch, DTP, NCI, 2024).

Tested on: KRAS patient-derived spheroids with HUVEC/MSC, viability
Assay: Anticancer human tumor 941728-121-R-J1-PDC patient-derived lung adenocarcinoma cell line growth inhibition [KRAS2]
Conditions: for IC50: curve of first compound; for viability, T/C: stronger effect = lower value
From the text: Multicellular complex tumor spheroid response to RAS pathway inhibitors in combination with a targeted agents in patient-derived cell lines with oncogenic KRAS variants from multiple cancer types
A high-throughput screen of multi-cell type tumor spheroids was designed to identify active combinations of targeted small molecules and KRAS pathway inhibitors. Complex spheroids include a stromal component modeled by human endothelial cells (HUVEC) and fibroblasts modeled by human mesenchymal stem cells (MSCs). The concentration ranges selected for each drug and investigational agent were based upon clinically achievable concentrations if the clinical Cmax of the agent was known.
Compounds. The drugs and investigational agents: BI-3406 (NSC825286), BAY-293 (NSC824723), batoprotafib (TNO155; NSC825523), sotorasib (AMG 510; NSC818433), MRTX1257 (NSC819558), elimusertib (BAY 1895344; NSC800525), molibresib (GSK525762; NSC774829), temuterkib (LY3214996; NSC803410), venetoclax (NSC766270), alisertib (NSC759677), olaparib (NSC753686), talazoparib (NSC767125), erdafitinib (NSC781556), ipatasertib (NSC767898), cabozantinib (NSC761068), nintedanib (NSC756659), abemaciclib (NSC768073), docetaxel (NSC628503), trametinib (NSC758246), and sapanisertib (NSC764658) were obtained from the National Cancer Institute (NCI) Developmental Therapeutics Program Chemical Repository. The FDA-approved anticancer drug set is available from the Developmental Therapeutics Program. […] The stock solutions were prepared in dimethyl sulfoxide (DMSO, Sigma-Aldrich, St. Louis, MO, cat. D2650) at 800-fold the tested concentration and stored at -70 degrees C prior to their use. All drugs and investigational agents were tested over a range starting from a high concentration at or near the clinical Cmax and decreasing in half-log increments. If the clinical Cmax for an agent had not been determined, the highest concentration tested was 10 microM.
Cell Culture. All cells were maintained in an incubator at 37 degrees C and 5% CO2 with 95% humidity. The PDC lines were cultured according to standard operating procedures established by the NCI PDMR (https://pdmr.cancer.gov/sops/default.htm). Briefly, all PDCs were thawed and cultured in Matrigel-coated flasks prepared with a working solution of 1X Ham's F-12 nutrient mix, without supplementation (Invitrogen, Waltham, MA, cat. 11765054), 100 U/mL penicillin-streptomycin (Invitrogen, cat. 15140122), and 2.5% Matrigel (Corning Inc., Corning, NY, cat. 354248) for the first three passages. All PDCs were cultured in complete DMEM/F-12 media containing advanced DMEM/F-12 (Invitrogen, cat. 12634028), 4.9% defined fetal bovine serum, heat inactivated (HyClone Laboratories Inc., Logan, UT, cat. SH30070.03HI), 389 ng/mL hydrocortisone (Sigma-Aldrich, cat. H4001), 9.7 ng/mL human EGF recombinant protein (Invitrogen, cat. PHG0313), 23.4 microg/mL adenine (Sigma-Aldrich, cat. A2786), 97.3 U/mL penicillin-streptomycin (Invitrogen, cat. 15140122), 1.9 mM L-glutamine (Invitrogen, cat. 25030081), and 9.7 microM Y-27632 dihydrochloride (Tocris Bioscience, Bristol, United Kingdom, cat. 1254). The PDCs were cultured in complete DMEM/F12 media without 9.7 microM Y-27632 dihydrochloride for at least two passages prior to the screen. The established cell line HOP-62 was cultured in RPMI 1640 medium, HEPES (Invitrogen, cat. 22400105) with 10% defined fetal bovine serum (HyClone Laboratories Inc., cat. SH30070.03) and 2 mM L-glutamine (Invitrogen, cat. 25030081). The pooled donor HUVEC were cultured in endothelial cell growth medium 2 (PromoCell, Heidelberg, Germany, cat. C-22011) and the hMSC were cultured in mesenchymal stem cell growth medium 2 (PromoCell, cat. C-28009). For all experiments, HUVEC and hMSC were used at passages </=5, while the malignant cell lines were used at passages </=15. […]

[1] = second compound 0.1 µM, first compound 0.0316 µM
[2] = second compound 0.1 µM, first compound 0.1 µM
[3] = second compound 0.1 µM, first compound 0.316 µM
[4] = second compound 0.1 µM, first compound 1 µM
[5] = second compound 0.1 µM, first compound 3.16 µM
[6] = second compound 0.1 µM, first compound 10 µM
[7] = second compound 0.316 µM, first compound 0.0316 µM
[8] = second compound 0.316 µM, first compound 0.1 µM
[9] = second compound 0.316 µM, first compound 0.316 µM
[10] = second compound 0.316 µM, first compound 1 µM
[11] = second compound 0.316 µM, first compound 3.16 µM
[12] = second compound 0.316 µM, first compound 10 µM
[13] = second compound 1 µM, first compound 0.0316 µM
[14] = second compound 1 µM, first compound 0.1 µM
[15] = second compound 1 µM, first compound 0.316 µM
[16] = second compound 1 µM, first compound 1 µM
[17] = second compound 1 µM, first compound 3.16 µM
[18] = second compound 1 µM, first compound 10 µM
[19] = second compound 3.16 µM, first compound 0.0316 µM
[20] = second compound 3.16 µM, first compound 0.1 µM
[21] = second compound 3.16 µM, first compound 0.316 µM
[22] = second compound 3.16 µM, first compound 1 µM
[23] = second compound 3.16 µM, first compound 3.16 µM
[24] = second compound 3.16 µM, first compound 10 µM
[25] = second compound 10 µM, first compound 0.0316 µM
[26] = second compound 10 µM, first compound 0.1 µM
[27] = second compound 10 µM, first compound 0.316 µM
[28] = second compound 10 µM, first compound 1 µM
[29] = second compound 10 µM, first compound 3.16 µM
[30] = second compound 10 µM, first compound 10 µM
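Also: spheroids exposed to agents for seven days before readout.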

## CC1(C)CCC(CN2CCN(c3ccc(C(=O)NS(=O)(=O)c4ccc(NCC5CCOCC5)c([N+](=O)[O-])c4)c(Oc4cnc5[nH]ccc5c4)c3)CC2)=C(c2ccc(Cl)cc2)C1 + CNCc1ccccc1-c1csc(C(C)Nc2nc(C)nc3cc(OC)c(OC)cc23)c1
Second compound 0.1 µM
  IC50: < 31.6 nM
Second compound 0.316 µM
  IC50: < 31.6 nM
Second compound 1 µM
  IC50: < 31.6 nM
Second compound 3.16 µM
  IC50: < 31.6 nM
Second compound 10 µM
  IC50: < 31.6 nM
[1]
  viability, T/C: 41.7%
[2]
  viability, T/C: 41.8%
[3]
  viability, T/C: 41.4%
[4]
  viability, T/C: 39.2%
[5]
  viability, T/C: 6.99%
[6]
  viability, T/C: 4.92%
[7]
  viability, T/C: 39.8%
[8]
  viability, T/C: 36%
[9]
  viability, T/C: 33.4%
[10]
  viability, T/C: 35.1%
[11]
  viability, T/C: 7.18%
[12]
  viability, T/C: 2.59%
[13]
  viability, T/C: 27%
[14]
  viability, T/C: 31.7%
[15]
  viability, T/C: 23.2%
[16]
  viability, T/C: 22.6%
[17]
  viability, T/C: 4.9%
[18]
  viability, T/C: 1.48%
[19]
  viability, T/C: 0.19%
[20]
  viability, T/C: 0.17%
[21]
  viability, T/C: 0.27%
[22]
  viability, T/C: 0.69%
[23]
  viability, T/C: 0.04%
[24]
  viability, T/C: 0.12%
[25]
  viability, T/C: 0.11%
[26]
  viability, T/C: 0.11%
[27]
  viability, T/C: 0.09%
[28]
  viability, T/C: 0.33%
[29]
  viability, T/C: 0.1%
[30]
  viability, T/C: 0.12%

## Cn1nccc1Nc1nccc(-c2cc3c(s2)C(C)(C)N(CCN2CCOCC2)C3=O)n1 + CNCc1ccccc1-c1csc(C(C)Nc2nc(C)nc3cc(OC)c(OC)cc23)c1
Second compound 0.1 µM
  IC50: 81.2 nM
Second compound 0.316 µM
  IC50: < 31.6 nM
Second compound 1 µM
  IC50: < 31.6 nM
Second compound 3.16 µM
  IC50: < 31.6 nM
Second compound 10 µM
  IC50: < 31.6 nM
[1]
  viability, T/C: 70.3%
[2]
  viability, T/C: 46.4%
[3]
  viability, T/C: 37.4%
[4]
  viability, T/C: 37.9%
[5]
  viability, T/C: 36.8%
[6]
  viability, T/C: 40.7%
[7]
  viability, T/C: 40.3%
[8]
  viability, T/C: 37.9%
[9]
  viability, T/C: 34.8%
[10]
  viability, T/C: 32.3%
[11]
  viability, T/C: 31%
[12]
  viability, T/C: 29.6%
[13]
  viability, T/C: 35.6%
[14]
  viability, T/C: 30.3%
[15]
  viability, T/C: 31.6%
[16]
  viability, T/C: 21.3%
[17]
  viability, T/C: 11.4%
[18]
  viability, T/C: 13.1%
[19]
  viability, T/C: 1.11%
[20]
  viability, T/C: 2.35%
[21]
  viability, T/C: 1.61%
[22]
  viability, T/C: 0.99%
[23]
  viability, T/C: 1.35%
[24]
  viability, T/C: 0.25%
[25]
  viability, T/C: 0.56%
[26]
  viability, T/C: 0.88%
[27]
  viability, T/C: 0.44%
[28]
  viability, T/C: 0.77%
[29]
  viability, T/C: 0.11%
[30]
  viability, T/C: 0.35%

## CC(C)NCC(C(=O)N1CCN(c2ncnc3c2C(C)CC3O)CC1)c1ccc(Cl)cc1 (stereo not given) + CC1OCC2(CCN(c3cnc(Sc4ccnc(N)c4Cl)c(N)n3)CC2)C1N
Second compound 0.1 µM
  IC50: < 31.6 nM
Second compound 0.316 µM
  IC50: < 31.6 nM
Second compound 1 µM
  IC50: < 31.6 nM
Second compound 3.16 µM
  IC50: < 31.6 nM
Second compound 10 µM
  IC50: < 31.6 nM
[1]
  viability, T/C: 38.3%
[2]
  viability, T/C: 40.1%
[3]
  viability, T/C: 29.9%
[4]
  viability, T/C: 24.9%
[5]
  viability, T/C: 19.1%
[6]
  viability, T/C: 10.4%
[7]
  viability, T/C: 34%
[8]
  viability, T/C: 31.9%
[9]
  viability, T/C: 25.3%
[10]
  viability, T/C: 20.9%
[11]
  viability, T/C: 15.1%
[12]
  viability, T/C: 8.83%
[13]
  viability, T/C: 26.2%
[14]
  viability, T/C: 26.8%
[15]
  viability, T/C: 23.7%
[16]
  viability, T/C: 16.7%
[17]
  viability, T/C: 12.8%
[18]
  viability, T/C: 4.1%
[19]
  viability, T/C: 25.8%
[20]
  viability, T/C: 22.1%
[21]
  viability, T/C: 20.8%
[22]
  viability, T/C: 14.3%
[23]
  viability, T/C: 10.7%
[24]
  viability, T/C: 3.56%
[25]
  viability, T/C: 19.1%
[26]
  viability, T/C: 17.9%
[27]
  viability, T/C: 17.2%
[28]
  viability, T/C: 11.2%
[29]
  viability, T/C: 4.83%
[30]
  viability, T/C: 1.91%
